{"source": "patent US20260193647A1", "about": "“MIRNA-BASED CANCER THERAPY WITH A TUMOR-NAVIGATING PEPTIDE” (The Board of Trustees of the Universities of Illinois, priority 2022, published 2026)", "key": {"SJ-GBM2-luc tumors": {"system": "SJ-GBM2-luc tumors", "test": "Intracranial orthotopic SJ-GBM2-luc xenograft: bioluminescence and survival", "type": "in vivo, mice", "experimental": "All animal experiments were performed in accordance with the use of animals in research and approved by IACUC. SJ-GBM2 cells stably expressing luciferase gene (pGL4.51 [luc2/CMV/Neo], Promega) were generated by a chemical transfection method (FuGENE HD, Promega) in the presence of G418 antibiotics (GoldBio). 4-5 weeks athymic mice were purchased from The Jackson Laboratory. SJ-GBM2-luc cell lines was maintained to 70% confluency and checked for their luminescence activity. Similar to the implantation method described previously, cells were resuspended in PBS at a final concentration of 10^6 cells/3 μl. Following anesthesia, a midline incision was made on the calvarium, extending from bregma to lambda sutures. At a position 2 mm posterior to bregma and 2 mm lateral to the […], a 3-mm hole was made in the skull. A 26-gauge Hamilton syringe was inserted into the hole, and 3 μl of 10^6 cells was injected slowly. The injection site was covered with sterile bone wax and sutured. As the first set of experiment, mice were randomly divided into the experimental groups and the dose finding studies were conducted with AmiR20-p28 at 0.1, and 1 mg/kg. AmiR20-p28 was administered every other day three times a week i.v. via the tail vein (200 μl/injection). As the second set of experiment, mice were randomly divided into the groups of PBS or AmiR20-p28 at 1 and 5 mg/kg (N=5). […] Mice were sacrificed based on the following humane endpoints such as >20% weight loss, the presence of labored respiration, abnormal behavior (e.g., paralysis), and loss of the ability to ambulate.\nD-Luciferin potassium salt (GoldBio, #LUCK-100) at 150 mg/kg was injected intraperitoneally into the mice. Mice were anesthetized in a chamber with isoflurane/oxygen and positioned for bioluminescent imaging using a Spectral Lago X imaging system (Accela, Czech Republic). A series of images was acquired over a duration up to 30 min after the time of D-luciferin injection. Aura software (version 3.2) was used to compute regions of interest (ROIs) and integrate the total bioluminescence signal in each ROI. Data were analyzed based on radiance (photons/second/cm^2/steradian) in the ROIs. The radiance values were plotted for each animal in the experimental group to form the tumor growth curve. Overall survival was also evaluated based on their survival period (mice died due to disease or were sacrificed based on the humane endpoints criteria). For X-ray imaging, the anesthetized mice were positioned, and a Spectral Lago X imaging system was used to take images. Aura software was used to merge the images taken with X-ray and bioluminescent systems."}, "[1]": {"system": "SJ-GBM2, CHLA-200, LN-229 and astrocytes", "test": "Intracellular entry by qPCR detection of antisense miR-20a", "type": "cell-based, human", "settings": "1, 10, 100 and 1,000 nM, 24 hr", "source_text": "Micro RNA enriched fraction was extracted using the miRNeasy Mini Kit (Qiagen, Catalog #217004) following the manufacturer's instructions. Stem loop real-time qPCR was used to analyze miRNA expression. We designed miR-20a stem loop RT primers and amplification primers according to a previously described method 79. cDNA was synthesized from extracted RNA using unique stem loop RT primers. The sequence of the stem loop primer for miR-20a was 5′-[…]-3′ (SEQ ID NO:7). Reverse transcriptase reactions contained the following reagents: 10 ng of RNA sample, 60 nM stem-loop RT primer, 1×RT buffer, 0.25 mM dNTP, and 4 U/μl reverse transcriptase. Reactions were performed by incubation at 16° C. for 30 min, 42° C. for 30 min and 85° C. for 5 min. Real-time PCR (7300 Real time PCR Systems, Applied Biosystems, CA) was performed using the specific forward primer for miR-20a (5′-[…]-3′ (SEQ ID NO:8)) and a universal reverse primer (5′-GTGCA GGGTC CGAGGT-3′ (SEQ ID NO:9)). The 20-μl PCR mixture included 1×SYBR Premix (Invitrogen), 2 μl of RT products and each forward and reverse primer at 10 nM. Reactions were performed by incubation in a 96-well plate at 95° C. for 30 sec, followed by 35 cycles of 95° C. for 30 sec and 60° C. for 30 sec. U6 was used as an internal control to normalize the level of target miRNAs. […]"}, "aGBM (LN-229) cells": {"system": "aGBM (LN-229) cells", "test": "Annexin V/PI flow cytometric apoptosis assay, aGBM (LN-229)", "type": "cell-based, human", "settings": "10 nM, 24 h", "experimental": "Cells were seeded into 10-cm dishes and cultured overnight. Then, the cells were treated with 10 nM antisense miR-20a alone, p28 alone or AmiR20-p28 for 24 hr. Cells were washed with 1×PBS, detached with TrypleE (Invitrogen). and collected by centrifugation. Cells were washed and resuspended with 1× Annexin binding buffer (Life Technologies, catalog #V13242), and the cell density was maintained at 10^6 cells/ml. Subsequently, 5 μl of Annexin-V was added to 100 μl of the cell suspension, and the mixture was incubated for 15 min at room temperature. The cells were washed and incubated with 5 μl of PI for an additional 15 min on ice, washed and resuspended in 200 μl of buffer. Cells without treatment were used as controls. After washing, cells were subjected to flow cytometry (Gallios flow cytometer) and analyzed with Kaluza software to give the proportions of dead (top left quadrant), late apoptotic (top right quadrant), early apoptotic (bottom right quadrant) and viable (bottom left quadrant) cells."}, "[2]": {"settings": "Example 6, 1 mg/kg i.v., late phase"}}, "data": [{"substance": "AmiR20-p28: BBB-permeable tumor-navigating CPP p28 (Cys-p28) covalently linked to 2′ O-methyl antisense miR-20a (5′-maleimide)", "values": [{"measurement": "tumor recurrence", "setting": "SJ-GBM2-luc tumors; 1 and 5 mg/kg, continued or stopped treatment after four weeks, additional ~two months", "value": "neither the 1 mg/kg nor the 5 mg/kg dose groups exhibited any signs of tumor recurrence"}, {"measurement": "tumor growth (bioluminescence)", "setting": "SJ-GBM2-luc tumors; 1 or 5 mg/kg i.v. 3× weekly, vs PBS or 0.1 mg/kg", "value": "significant inhibition of tumor growth"}, {"measurement": "overall survival rate", "setting": "SJ-GBM2-luc tumors; Example 6, 1 mg/kg i.v., early phase", "value": 100, "unit": "%"}, {"measurement": "tumor growth (bioluminescence)", "setting": "SJ-GBM2-luc tumors; Example 6, 1 mg/kg i.v., early phase, start 10 days after cell injection", "value": "complete repression of tumor"}, {"measurement": "mice survived at day 49", "setting": "SJ-GBM2-luc tumors; [2]", "value": 80, "unit": "%"}, {"measurement": "overall survival rate", "setting": "SJ-GBM2-luc tumors; [2]", "value": 40, "unit": "%"}, {"measurement": "tumor growth (bioluminescence)", "setting": "SJ-GBM2-luc tumors; Example 6, 1 mg/kg i.v., late phase, start 40 days after cell injection", "value": "tumor progression was observed"}, {"measurement": "overall survival rate", "setting": "SJ-GBM2-luc tumors; Example 6, 1 mg/kg i.v., middle phase", "value": 80, "unit": "%"}, {"measurement": "tumor growth (bioluminescence)", "setting": "SJ-GBM2-luc tumors; Example 6, 1 mg/kg i.v., middle phase, start 20 days after cell injection", "value": "sustained suppression of the tumor burden"}, {"measurement": "tumor growth (bioluminescence)", "setting": "SJ-GBM2-luc tumors; Example 7, 1 mg/kg i.v., early phase, 10 days after cell injection", "value": "complete repression of tumor"}, {"measurement": "tumor growth (bioluminescence)", "setting": "SJ-GBM2-luc tumors; Example 7, 1 mg/kg i.v., late phase, 42 days after cell injection", "value": "tumor progression"}, {"measurement": "tumor growth (bioluminescence)", "setting": "SJ-GBM2-luc tumors; Example 7, 1 mg/kg i.v., middle phase, 21 days after cell injection", "value": "sustained suppression of tumor growth"}, {"measurement": "overall survival probability", "setting": "SJ-GBM2-luc tumors; Example 7, 1 mg/kg, late phase", "value": 60, "unit": "%"}, {"measurement": "tumor growth (bioluminescence)", "setting": "SJ-GBM2-luc tumors; Example 7, 1 mg/kg, vs PBS and 0.1 mg/kg", "value": "significant repression in tumor growth"}, {"measurement": "penetration into pGBM and aGBM cells (qPCR of antisense miR-20a)", "setting": "[1]", "value": "preferential and dose-dependent penetration"}, {"measurement": "apoptotic cells after treatment", "setting": "aGBM (LN-229) cells", "value": 6.7, "unit": "%"}]}]}
